According to US10781236B2, “Bacteriocin composition and method” (priority 2015, dated 2020):
Converted amounts (≈) assume the structure as drawn. Like-named read-outs stand apart in the source and are kept apart here. Where a SMILES comes first, the peptide text is derived from it.

Key:
L. lactis IL1403 = format: cell-based, Lactococcus lactis
Experimental: The bacteriocin activity was assayed using a microtitre plate assay (Holo et al., 1991, supra). The plates were incubated at 30° C. for 8 h and the growth was measured spectrophotometrically at 600 nm (A600) with 15 min intervals using SPECTROstarNano (BMG LABTECH, Germany). The MIC was defined as the minimal bacteriocin concentration that inhibited the growth of the indicator strain by at least 50% (50% of the turbidity of the control culture without bacteriocin) in 200 μl culture. MIC is equal to one bacteriocin unit (BU).
All the peptides in the experiments were synthesized by Pepmic Co., LTD, China with 90-99% purity except for CerHA, CerHB and CerVC (85% purity). Aureocin A70F is almost identical to bacteriocin AureocinA70, both being made up of four peptides (peptide A, B, C and D) but in peptide D of Aureocin A70F leucine 29 is replaced with phenylalanine (EWU40578.1). Synthesized peptides were solubilized to a concentration of 0.1 to 10 mg/ml in 0.1% (vol/vol) trifluoroacetic acid and stored at −20° C. until use.
The three identified peptides termed GarKosA, GarKosB and GarKosC were chemically synthesized and tested for antimicrobial activity. The antimicrobial activity of the individual peptides was assessed against L. lactis IL1403 (Table 6).

[1] = Tryptophan-to-alanine GarA variants, antibacterial activity; format: cell-based; details: in combination with the other peptides of Garvicin KS
Experimental: The three tryptophan residues in GarA were replaced one by one with alanine (Table 9). Antibacterial activity was tested when used in combination with the other peptides of Garvicin KS.

| Compound | MIC, single peptide (L. lactis IL1403; IL1403, 8 h) [µM] | further results |
| --- | --- | --- |
| CC[C@H](C)[C@H](NC(=O)[C@H](CCCNC(=N)N)NC(=O)[C@@H](NC(=O)CNC(=O)[C@H](C)NC(=O)[C@H](CCC(=O)O)NC(=O)[C@H](Cc1c[nH]c2ccccc12)NC(=O)CNC(=O)[C@H](CC(C)C)NC(=O)[C@H](Cc1c[nH]c2ccccc12)NC(=O)[C@H](CO)NC(=O)[C@H](C)NC(=O)[C@H](C)NC(=O)[C@@H](NC(=O)CNC(=O)CNC(=O)[C@@H](NC(=O)[C@@H](NC(=O)[C@H](CCCCN)NC(=O)[C@H](CC(C)C)NC(=O)CNC(=O)CNC(=O)[C@H](CCCCN)NC(=O)[C@@H](NC(=O)[C@@H](NC(=O)[C@H](C)NC(=O)CNC(=O)[C@@H](N)CCSC)C(C)C)C(C)C)[C@@H](C)CC)[C@@H](C)CC)[C@@H](C)O)[C@@H](C)O)C(=O)N[C@@H](Cc1c[nH]c2ccccc12)C(=O)N[C@@H](CCCCN)C(=O)O [CerV C] (H-MGAVVKGGLKIIGGTAASWLGWEAGTRIWK-OH; N-terminus and C-terminus assumed) | >6 | – |
| CC[C@H](C)[C@H](NC(=O)[C@H](CCCCN)NC(=O)[C@H](CCCCN)NC(=O)[C@H](CC(C)C)NC(=O)CNC(=O)CNC(=O)[C@H](Cc1ccc(O)cc1)NC(=O)[C@@H](NC(=O)[C@H](C)NC(=O)CNC(=O)CNC(=O)[C@H](C)NC(=O)[C@@H](NC(=O)CNC(=O)CNC(=O)[C@H](C)NC(=O)[C@H](Cc1ccccc1)NC(=O)[C@H](C)NC(=O)[C@H](CCCCN)NC(=O)CNC(=O)[C@H](CC(C)C)NC(=O)[C@H](CCSC)NC(=O)[C@H](CCCCN)NC(=O)[C@@H](NC(=O)[C@H](C)NC(=O)[C@H](C)NC(=O)CNC(=O)[C@@H](N)CCSC)C(C)C)C(C)C)[C@@H](C)O)C(=O)N[C@@H](Cc1ccccc1)C(=O)NCC(=O)O [CerV B] (H-MGAAVKMLGKAFAGGVAGGATYGGLKKIFG-OH; N-terminus and C-terminus assumed) | >6 | – |
| MGAIIKAGAKIVGKGVLGGGASWLGANVGEKIWK (Altered Sequence of GarA from Lactococcus garvieae with W26A Mutation) [GarA-26A] | – | antibacterial activity in words [1]: no antibacterial activity |
| CC[C@H](C)[C@H](NC(=O)[C@H](C)NC(=O)CNC(=O)[C@@H](N)CCSC)C(=O)N[C@H](C(=O)N[C@@H](CCCCN)C(=O)N[C@@H](C)C(=O)NCC(=O)N[C@@H](C)C(=O)N[C@@H](CCCCN)C(=O)N[C@H](C(=O)N[C@H](C(=O)NCC(=O)N[C@@H](CCCCN)C(=O)NCC(=O)N[C@@H](C)C(=O)N[C@@H](CC(C)C)C(=O)N[C@H](C(=O)NCC(=O)NCC(=O)NCC(=O)N[C@H](C(=O)N[C@@H](Cc1c[nH]c2ccccc12)C(=O)N[C@@H](CC(C)C)C(=O)N[C@@H](C)C(=O)N[C@@H](CCC(=O)O)C(=O)N[C@@H](CCCCN)C(=O)N[C@@H](CC(C)C)C(=O)N[C@@H](Cc1ccccc1)C(=O)NCC(=O)NCC(=O)N[C@@H](CCCCN)C(=O)O)C(C)C)[C@@H](C)O)C(C)C)[C@@H](C)CC)[C@@H](C)CC [Kos C] (H-MGAIIKAGAKIVGKGALTGGGVWLAEKLFGGK-OH; N-terminus and C-terminus assumed) | – | MIC, single peptide (L. lactis IL1403; L. lactis IL1403, synthetic single peptide, >=50% growth inhibition): 6 µM (≈ 18.6 µg/mL) |
